Test results reported in US20260241046A1, “PROSTATE-SPECIFIC MEMBRANE ANTIGEN RECEPTOR-TARGETING RADIOPHARMACEUTICALS AND USES THEREOF” (Nuclidium AG, priority 2024, published 2026).
Entries after “also recorded” stand apart in the source; their conditions may differ.

How the values were obtained:
[1] = system: LNCaP cells; test: In vitro cellular uptake and internalization; type: cell-based, human; details: for Cell surface fraction / Internalised fraction / Total uptake: % of total applied activity
Method: The cellular uptake of [^61Cu]Cu-NODAGA-PSMA I&T was studied in vitro using intact LNCaP cells seeded overnight in 6-well plates. On the day of the experiment, the cells were washed and incubated with [^61Cu]Cu-NODAGA-PSMA I&T at different time points, either alone or in the presence of 2-PMPA (10 μM) as a blocking agent, to distinguish between specific and non-specific uptake. At each investigated time point, the medium containing the unbound (free) [^61Cu]Cu-NODAGA-PSMA I&T was removed, followed by two washing steps with ice-cold phosphate-buffered saline. The cells were then treated for 2×5 min with ice-cold glycine solution (0.05 M, pH 2.8) to detach the cell surface-bound tracer (acid released). Afterwards, the cells containing the internalized [^61Cu]Cu-NODAGA-PSMA I&T were detached with 1 M sodium hydroxide at 37° C. and collected for measurement. The specific cell surface-bound and internalized tracer was expressed as a percentage of the total applied activity after subtracting the non-specific values. The results are presented in Table 23 as a mean value (n=3±standard deviation).

[2] = system: LNCaP cells; test: In vitro efflux rate; type: cell-based, human; details: for Cell-associated fraction, With competitor: 100-fold excess DOTAGA-PSMA I&T
Method: Efflux-rate assays were performed on 6-well plates pre-treated with poly-L-lysine to promote adhesion. The plated cells were incubated with [^61Cu]Cu-NODAGA-PSMA I&T (100 μL, 0.5 nM) at 37° C. For non-specific uptake measurement, 100 μL of 2-PMPA (10 μM) was added to some wells. After 1 h, the cell-released fraction was collected by removing the medium and washing it twice with PBS. Then, the cells were incubated at 37° C. in a fresh medium for up to 180 min. At each time point, the medium was removed and replaced by fresh pre-warmed (37° C.) medium. At the end of the experiment, the cells were detached with 1 M sodium hydroxide and collected to determine the remaining cell-binding [^61Cu]Cu-NODAGA-PSMA I&T. The different fractions were quantified using a γ-counter (Cobra II, Packard A Canberra) and represented as a percentage of the applied radioactivity.
The experiment was also performed in the presence of a competitor (100-fold excess DOTAGA-PSMA I&T) to obtain a “rebinding free” system. The presence of the competitor prevented any rebinding of [^61Cu]Cu-NODAGA-PSMA I&T that dissociates faster. The values were calculated as a percentage of the cell-associated fraction (surface-bound and internalized fraction), subtracting the non-specific uptake (measured in the presence of 10 μM 2-PMPA).

[3] = system: PSMA-expressing tissues
Method: The specificity of [^61Cu]Cu-NODAGA-PSMA I&T for PSMA-expressing tissues was evaluated in LNCaP xenograft mice through a blocking study. The mice were first administered with 1.3 μmol (300 μg) of 2-PMPA as a blocking agent, followed by an intravenous injection of 4-8 MBq ([…]) [^61Cu]Cu-NODAGA-PSMA I&T diluted to 100 μL in saline in the tail vein. The animals (n=4) were sacrificed 1 hour post-injection, and the organs were collected, weighed and counted in a gamma counter as already described. The results are expressed as a percentage of injected activity per gram (% IA/g) as presented in Table 27 and are compared with the results obtained from biodistribution studies.
PET/CT imaging was also performed at 1 hour post-injection.

[4] = biological target: T1, PSMA-expressing tumors (Homo sapiens, UniProt Q04609); test: First-in-human PET/CT study; type: in vivo; details: 104 MBq i.v., imaging at 3 hours, patient with metastatic prostate cancer
T1 construct: administered intravenously to a patient with known metastatic prostate cancer; from tissue; host or cells: osseous and hepatic metastases of a patient with metastatic prostate cancer
Method: A [^61Cu]Cu-NODAGA-PSMA I&T dose of 104 MBq (2.81 mCi) was administered intravenously to a patient with known metastatic prostate cancer. The patient was co-injected with 10 mg furosemide (Lasix®, Sanofi-Aventis, Frankfurt, Germany).
Imaging was performed at 3 hours following radiotracer administration on a Biograph Vision 600 (Siemens, Germany) PET/CT scanner. Images were obtained from the skull to mid-thigh and reconstructed into multiplanar PT, CT, and fused PET/CT images. CT was used for attenuation correction.

T1 sequence (Q04609 whole entry): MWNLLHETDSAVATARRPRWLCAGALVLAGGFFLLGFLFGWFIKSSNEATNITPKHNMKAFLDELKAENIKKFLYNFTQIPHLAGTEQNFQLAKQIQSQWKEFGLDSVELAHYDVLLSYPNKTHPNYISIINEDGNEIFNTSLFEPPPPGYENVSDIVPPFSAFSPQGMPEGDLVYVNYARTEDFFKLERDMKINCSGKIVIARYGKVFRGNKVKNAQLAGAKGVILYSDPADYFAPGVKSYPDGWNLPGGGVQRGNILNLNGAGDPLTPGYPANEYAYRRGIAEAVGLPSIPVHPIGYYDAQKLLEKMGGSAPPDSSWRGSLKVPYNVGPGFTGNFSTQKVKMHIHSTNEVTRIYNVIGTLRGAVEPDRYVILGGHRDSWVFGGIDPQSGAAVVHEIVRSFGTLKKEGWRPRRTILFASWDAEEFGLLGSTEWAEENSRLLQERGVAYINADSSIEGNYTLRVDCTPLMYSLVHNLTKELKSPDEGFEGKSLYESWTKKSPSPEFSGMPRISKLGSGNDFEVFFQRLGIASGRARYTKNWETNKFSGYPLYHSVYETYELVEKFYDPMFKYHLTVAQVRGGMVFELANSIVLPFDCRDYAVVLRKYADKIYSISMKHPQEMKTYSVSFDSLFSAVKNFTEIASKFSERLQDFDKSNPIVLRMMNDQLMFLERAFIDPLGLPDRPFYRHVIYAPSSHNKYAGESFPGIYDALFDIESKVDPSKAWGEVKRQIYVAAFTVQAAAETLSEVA

Compound: O=C([O-])CN1CCN(CC(=O)[O-])CCN([C@H](CCC(=O)N[C@H](Cc2ccc(O)c(I)c2)C(=O)N[C@H](Cc2ccccc2)C(=O)N[C@H](CCCCNC(=O)CCCCCCC(=O)NCCCC[C@H](NC(=O)N[C@@H](CCC(=O)O)C(=O)O)C(=O)O)C(=O)O)C(=O)O)CC1.[61Cu+2] [[^61Cu]Cu-NODAGA-PSMA I&T]
- time over which the radiotracer was continuously internalized [1]: up to 120 minutes
- Cell surface fraction ([1]; 5 min): 4.3 ± 0.7%
- Internalised fraction ([1]; 5 min): 1.2 ± 0.2%
- Total uptake ([1]; 5 min): 5.5 ± 0.9%
- Cell surface fraction ([1]; 15 min): 8.2 ± 1.0%
- Internalised fraction ([1]; 15 min): 3.9 ± 0.4%
- Total uptake ([1]; 15 min): 12.1 ± 1.4%
- Cell surface fraction ([1]; 30 min): 10.7 ± 1.0%
- Internalised fraction ([1]; 30 min): 7.0 ± 1.1%
- Total uptake ([1]; 30 min): 17.7 ± 2.1%
- Cell surface fraction ([1]; 60 min): 10.8 ± 1.8%
- Internalised fraction ([1]; 60 min): 11.7 ± 1.6%
- Total uptake ([1]; 60 min): 22.5 ± 3.4%
- Cell surface fraction ([1]; 120 min): 10.2 ± 1.8%
- Internalised fraction ([1]; 120 min): 17.6 ± 2.8%
- Total uptake ([1]; 120 min): 27.8 ± 4.6%
- time of highest accumulation on the cell membrane ([1]; saturation of binding sites): ≤ 30 min
- Cell-associated fraction, Without competitor ([2]; 10 min): 83.8 ± 0.7%
- Cell-associated fraction, With competitor ([2]; 10 min): 67.9 ± 1.1%
- Cell-associated fraction, Without competitor ([2]; 20 min): 73.5 ± 0.8%
- Cell-associated fraction, With competitor ([2]; 20 min): 54.4 ± 0.7%
- Cell-associated fraction, Without competitor ([2]; 30 min): 65.2 ± 1.4%
- Cell-associated fraction, With competitor ([2]; 30 min): 46.5 ± 0.4%
- Cell-associated fraction, Without competitor ([2]; 45 min): 57.0 ± 2.8%
- Cell-associated fraction, With competitor ([2]; 45 min): 39.9 ± 0.6%
- Cell-associated fraction, Without competitor ([2]; 60 min): 51.3 ± 3.3%
- Cell-associated fraction, With competitor ([2]; 60 min): 35.9 ± 0.9%
- Cell-associated fraction, Without competitor ([2]; 90 min): 45.0 ± 3.3%
- Cell-associated fraction, With competitor ([2]; 90 min): 29.9 ± 1.1%
- Cell-associated fraction, Without competitor ([2]; 120 min): 40.0 ± 3.5%
- Cell-associated fraction, With competitor ([2]; 120 min): 25.0 ± 0.5%
- Cell-associated fraction, Without competitor ([2]; 150 min): 35.4 ± 3.1%
- Cell-associated fraction, With competitor ([2]; 150 min): 20.9 ± 0.4%
- Cell-associated fraction, Without competitor ([2]; 180 min): 31.5 ± 2.5%
- Cell-associated fraction, With competitor ([2]; 180 min): 17.5 ± 0.5%
- Biodistribution with 2-PMPA blocking, Adrenal ([3]; 1 hour post-injection): 0.96±0.87 % IA/g
- Biodistribution with 2-PMPA blocking, Blood ([3]; 1 hour post-injection): 0.44 ± 0.50 % IA/g
- Biodistribution with 2-PMPA blocking, Bone ([3]; 1 hour post-injection): 0.39 ± 0.24 % IA/g
- Biodistribution with 2-PMPA blocking, Heart ([3]; 1 hour post-injection): 0.34 ± 0.27 % IA/g
- Biodistribution with 2-PMPA blocking, Intestine ([3]; 1 hour post-injection): 0.87 ± 0.50 % IA/g
- Biodistribution with 2-PMPA blocking, Kidneys ([3]; 1 hour post-injection): 4.59±0.50 % IA/g
- Biodistribution with 2-PMPA blocking, LNCaP-tumor ([3]; 1 hour post-injection): 0.68±0.54 % IA/g
- Biodistribution with 2-PMPA blocking, Liver ([3]; 1 hour post-injection): 1.29 ± 0.53 % IA/g
- Biodistribution with 2-PMPA blocking, Lung ([3]; 1 hour post-injection): 0.67 ± 0.40 % IA/g
- Biodistribution with 2-PMPA blocking, Muscle ([3]; 1 hour post-injection): 0.32 ± 0.36 % IA/g
- Biodistribution with 2-PMPA blocking, Pancreas ([3]; 1 hour post-injection): 0.29 ± 0.19 % IA/g
- Biodistribution with 2-PMPA blocking, Salivary glands ([3]; 1 hour post-injection): 0.51 ± 0.30 % IA/g
- Biodistribution with 2-PMPA blocking, Spleen ([3]; 1 hour post-injection): 0.33±0.16 % IA/g
- Biodistribution with 2-PMPA blocking, Stomach ([3]; 1 hour post-injection): 0.62 ± 0.28 % IA/g
- in vivo stability (transchelation) ([3]; LNCaP xenograft mice): stable in vivo, with limited transchelation phenomena
- radiotracer accumulation on PET/CT [4]: multifocal osseous (arrows) and hepatic (arrowheads) metastases; also recorded: Radiotracer accumulation was noted in multifocal osseous and hepatic metastases
